Read-outs that look alike come from different tables or passages of the source.
Columns and labels:
[1] = tested on: reporter viruses pseudotyped with HIV-1SF162 envelope; format: cell-based; settings: HIV-1 Envelope SF162; named 1st inhibitor with 2nd inhibitor PRO 140
Description: (§1) A self-inactivating (SIN) vector was derived from the pNL4-3ΔEnv-luciferase vector (Dragic et al. 1996) by deleting 507 basepairs in the U3 region of the 3′ long terminal repeat (LTR) so as to remove the TATA, box and transcription factor binding sites. The human cytomegalovirus promoter was inserted upstream of the luciferase (luc) gene to enable expression of luciferase following integration.
(§2) SF162 envelopes were generated by cotransfection of 293T cells with the SIN vector and the appropriate pcDNA env-expressing vector as previously described (Dragic et al, 1996). […] Cultures were incubated for 72 h at 37°C. in DMEM containing 10% fetal bovine serum, […], 0.3 mg/mL geneticin, antibiotics, and 0.5% DMSO. Luciferase activity (relative light units or RLU) was measured using BrightGlo reagent (Promega, Madison, Wis.) according to the manufacturer's instructions. Percent inhibition was calculated as: (1-RLU in the presence of inhibitor/RLU in the absence of inhibitor)×100.
(§3) Experimental design and data analysis were based on the combination index (CI) method (Chou et al. 1991; Chou et al. 1984). Compounds were tested individually and in combination at a fixed molar ratio over a range of serial dilutions. […] The mutually exclusive CI formula was used for combinations of CCR5 inhibitors, while the mutually non-exclusive formula was utilized for combinations of inhibitors to distinct targets (Chou et al. 1991). Each test was conducted 4-12 times. Synergy, additivity and antagonism are indicated by CI<1, CI=1 and CI>1, respectively.
(§4) In the Bonferroni correction, P=.alpha,/h, where n is the number of comparisons. Twenty-two synergy comparisons (11 compounds×2 CI values) were made based on data generated in the membrane fusion assay, resulting in a corrected P value of0.0023.

[2] = tested on: reporter viruses pseudotyped with HIV-1JR-FL envelope; format: cell-based; settings: HIV-1 Envelope JRFL; named 1st inhibitor with 2nd inhibitor PRO 140
Description: as §1, §2, §3, §4

[3] = tested on: HIV-1JR-FL envelope-mediated membrane fusion; format: cell-based
Description: HIV-1 envelope-mediated membrane fusion was examined using a fluorescence resonance energy transfer (RET) assay (Litwin et al. 1996) with modifications. Briefly, HeLa cells that stably express HIV-1JR-FL gp120/gp41 (Litwin et al. 1996) and CEM.NKR-CCR5 cells (NTH AIDS Research and Reference Reagent Program, (Spenlehauer et al. 2001; Trkola et al. 1999)) were labeled separately overnight with fluorescein octadecyl ester (F18; Molecular Probes, Eugene, Oreg.) and rhodamine octadecyl ester (R18; Molecular Probes), respectively. Cells were washed in phosphate-buffered saline containing 15% feral bovine serum (PBSF) and co-seeded at 15,000 cells/well into a 384-well plate. Inhibitors were added, and the plates were incubated in PBSF plus 0.5% dimethlysulfoxide (DMSO) for 4h at 37°C. prior to measurement of RET using a Victor^2 plate reader (Perkin-Elmer, Boston, Mass.) as previously described (Litwin et al. 1996). The CD4 mAb Leu3a was used as a control inhibitor, and percent inhibition was calculated as: (RET in the absence of inhibitor—RET in the presence of inhibitor)/(RET in the absence of inhibitor—RET in the presence of Leu3a)×100.
as §3, §4

[4] = in vivo; cited from earlier work
[5] = tested on: HIV-1 Env-mediated fusion of HeLa-EnvJRFL and CEM NKR-CCR5 cells; assay: HIV-1 RET cell-cell fusion assay (Part II, Example 1); format: cell-based; settings: PRO 140 in combination with the named compound; for Mean CF: 1:1 molar ratio, Combination Index at IC50 value
Experimental: and then diluted in DMSO to 200× the final, concentration to be utilized in the antiviral assay. Serial dilutions of small molecules were conducted in DMSO. Subsequent dilutions were conducted in medium to achieve a final DMSO concentration in the assay of 0.5%. Peptides and mAbs were diluted in PBS in the absence of DMSO.
HeLa cells were engineered to express HIV-1 gp120/gp41 from the macrophage-tropic primary isolate JRFL as described (HeLa-EnvJRFL: Litwin et al., 1996). Briefly, the HIV-1LA1 Env gene was excised from the plasmid pMA243 (Dragic et al., 1992) and the HIV-1JRFL Env gene was inserted. The HIV-1.sub JRFL Env gene was amplified from the plasmid pUCFL112-1 (Koyanagi et al., 1987). The resulting plasmid, designated JR-FL-pMA243, was sequenced by standard methods and transfected into HeLa cells using lipofectin (Gibco BRL/Invitrogen, Carlsbad, Calif.). HeLa-Env.sub JRFL transfectants were selected in methotrexate (Sigma, St. Louis, Mo.) and cloned twice by limiting dilution. The transduced human T cell leukemia line CEM NKR-CCR5 cells were obtained from the NIH AIDS Research and Reference Program (Cat. No. 458).
The HIV-1 RET assay has been described in detail previously (Litwin et al., 1996). Briefly, fluorescein octadecyl ester (F18; Molecular Probes, Eugene, Oreg.; 5 mg/ml in ethanol), was diluted 1:800 in DMEM labeling medium (DMEM; Invitrogen, Carlsbad, Calif.) with 10% fetal bovine serum (FBS; HyClone, Logan, Utah) and adjusted to an A506 of 0.34.+−0.10%. Octadecyl rhodamine B chloride (R18; Molecular Probes; 10 mg/ml in ethanol) was diluted 1:2050 in labeling medium and adjusted to an A565 of 0.52.+−0.10%. Both dyes were further diluted 2-fold by addition to cells in T75-cm^2 flasks. HeLa-EnvJRFL and CEM NKR-CCR5 cells were incubated overnight in F18- and R18-containing culture medium, respectively. The following day, medium from HeLa-EnvJRFL, cells was removed and 10 ml of 0.5 mM EDTA was added and incubated at 37°C. for 5 min. […] The centrifugation/wash step was repeated twice, after which the cells were counted and concentrations adjusted to 1.5×10^6 cells/ml. […] The plates were then read on a fluorescence plate reader (Victor^2, Perkin Elmer, Boston, Mass.) using the excitation/emission filter combinations shown in Table 5.
The “% Inhibition” was calculated according to the following formula: […]
Fifty percent inhibition (IC50) values were determined by fitting the inhibition data with a non-linear, four-parameter, variable slope equation (GraphPad Prism 4.02; GraphPad Software, San Diego, Calif.). […]
Cooperative inhibition effects of drug combinations were determined by the method of Chou and Talalay (1984). […] Combination Index (CI) and Dose Reduction (DR) values were calculated according to the following formulas: […]

CCR5 [6] = biological target: T1, CCR5 (Homo sapiens, UniProt P51681); assay: Competition binding: inhibition of PRO 140-PE binding to CEM.NKR-CCR5 cells; design: host or cells: CEM.NKR-CCR5 (transduced human T cell leukemia line); settings: for inhibition of PRO 140-PE binding to CEM.NKR-CCR5 cells: in words
T1 sequence (P51681 whole entry): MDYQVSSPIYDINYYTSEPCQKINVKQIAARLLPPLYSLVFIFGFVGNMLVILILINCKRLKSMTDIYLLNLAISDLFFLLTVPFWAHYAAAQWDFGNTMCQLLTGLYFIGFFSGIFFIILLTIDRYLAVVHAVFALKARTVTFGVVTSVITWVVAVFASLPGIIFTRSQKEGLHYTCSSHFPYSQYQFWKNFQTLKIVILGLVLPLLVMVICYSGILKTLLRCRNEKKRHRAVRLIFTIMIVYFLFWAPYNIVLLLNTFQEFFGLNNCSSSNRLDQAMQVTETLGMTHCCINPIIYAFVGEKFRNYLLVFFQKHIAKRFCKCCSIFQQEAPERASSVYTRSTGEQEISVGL
Experimental: Azide was added to block CCR5 internalization during the assay.

CCR5 [7] = biological target: T1, CCR5; assay: Competition binding: inhibition of 3H-UK-427,857 binding to CEM.NKR-CCR5 cells; design: host or cells: CEM.NKR-CCR5 (transduced human T cell leukemia line)
Description: The cells were washed in PBSA and lysed with 0.5N HCl prior to scintillation counting using a Wallac1410 instrument.

[8] = single administration of TAK-652 solution; cited from earlier work
HIV-1 = settings: repeated administration; cited from earlier work
CCR5 lymphocytes = format: in vivo, human; settings: 2 mg/kg
Experimental: Individuals were treated in sequential, dose-rising cohorts of 5 subjects (4 active and 1 placebo) each and evaluated for up to 120 days post-treatment. […] Safety assessments consisted of monitoring the following: vital signs (blood pressure, pulse, temperature, etc; hematology (hemoglobin, hematocrit, leukocytes, platelets, etc.); serum chemistries (AST/ALT, alkaline phosphatase, BUN, creatinine, etc.); urinalysis (pH, specific gravity, protein, glucose, leukocytes, etc.); and ECGs (12-lead).
Whole blood specimens were combined separately with the indicated phycoerythrin-labeled anti-CCR5 antibodies or with appropriate isotype-control antibodies. Erythocytes were lysed and leukocytes were stabilized using the ImmunoPrep Reagent System (Beckman Coulter), and the cells were analyzed on a TQ Prep™ flow cytometry workstation (Beckman Coulter). Data were expressed as the percent of CCR5 cells relative to all cells gated in the analysis.
For up to 60 days post-treatment, at the times indicated in FIG. 6, blood was collected and analyzed for CCR5 lymphocyte levels.

CCR5 [9] = biological target: T1, CCR5; assay: RANTES-induced calcium mobilization in L1.2-CCR5 cells; format: cell-based; settings: FIG. 4
Description: Similar results were obtained for MIP-1.alpha, and MIP-1β

[10] = named 1st inhibitor with 2nd inhibitor PRO 140, equimolar
[11] = named 1st inhibitor with 2nd inhibitor UK-427,857, equimolar

**Q.** What does the source list for `COc1ccnc2[nH]cc(C(=O)C(=O)N3CCN(C(=O)c4ccccc4)C[C@H]3C)c12` [BMS-378806, (R)-N-(benzoyl)-3-methyl-N′-[(4-methoxy-7-azaindol-3-yl)-oxoacetyl]-piperazine]?
**A.** CI190 [1]: 0.82 ± 0.21; CI190 [2]: 0.74 ± 0.23; C190 [3, 10]: 1.1 ± 0.22; CI50 [3, 10]: 1.3 ± 0.19

**Q.** With `Cc1ccc(-c2ccc3c(c2)C=C(C(=O)Nc2ccc(C[N+](C)(C)C4CCOCC4)cc2)CCC3)cc1.[Cl-]` [TAK-779] as the molecule, how does the local tolerability [4] read?
**A.** local injection site irritation

**Q.** Which results are given for `Cc1ccnc2c1NC(=O)c1cccnc1N2C1CC1` [nevirapine]?
**A.** CI190 [1]: 0.63 ± 0.19; CI190 [2]: 0.73 ± 0.28

**Q.** Which “Mean CF” value [5] does the source give for `Cc1nnc(C(C)C)n1C1CC2CCC(C1)N2CC[C@H](NC(=O)C1CCC(F)(F)CC1)c1ccccc1` (some centres unmarked) [UK-427,857] here?
**A.** 0.59 ± 0.04

**Q.** What about the C190 [3, 10] of the same molecule?
**A.** 0.40 ± 0.06

**Q.** And the CI50 [3, 10]?
**A.** 0.61 ± 0.5

**Q.** Which “impact on percent of cells gated for positive binding of PRO 140-PE” value (CCR5 [6]) does the source give for `COC[C@@H](c1ccc(C(F)(F)F)cc1)N1CCN(C2(C)CCN(C(=O)c3c(C)ncnc3C)CC2)C[C@@H]1C` [SCH-D] here?
**A.** little impact

**Q.** And the “inhibition of PRO 140-PE binding to CEM.NKR-CCR5 cells” value (CCR5 [6])?
**A.** modest levels of inhibition

**Q.** And the CI190 [1]?
**A.** 0.28 ± 0.11

**Q.** And the CI190 [2]?
**A.** 0.18 ± 0.04

**Q.** And the “inhibition of 3H-UK-427,857 binding” value (CCR5 [7])?
**A.** blocked ^3H-UK-427,857 binding to background levels

**Q.** What about the C190 [3, 10] of the same molecule?
**A.** 0.36 ± 0.06

**Q.** What about the C190 [3, 11] of the same molecule?
**A.** 0.75 ± 0.02

**Q.** What does the source list for `Cc1cn([C@H]2C[C@H](N=[N+]=[N-])[C@@H](CO)O2)c(=O)[nH]c1=O` [zidovudine]?
**A.** CI190 [1]: 1.0 ± 0.38; CI190 [2]: 0.85 ± 0.26

**Q.** With `CCCCOCCOc1ccc(-c2ccc3c(c2)/C=C(/C(=O)Nc2ccc([S+]([O-])Cc4cncn4CCC)cc2)CCCN3CC(C)C)cc1` (centres unmarked) [TAK-652] as the molecule, how does the safety and tolerability [8] read?
**A.** safe and well tolerated

B1: PRO 140: humanized IgG4,kappa anti-CCR5 mAb; humanized version of the murine mAb PA14 (antibody, chains of the INN, looked up, V domains shown)
VH: EVQLVESGGGLVKPGGSLRLSCAASGYTFSNYWIGWVRQAPGKGLEWIGDIYPGGNYIRNNEKFKDKTTLSADTSKNTAYLQMNSLKTEDTAVYYCGSSFGSNYVFAWFTYWGQGTLVTVSS
VL: DIVMTQSPLSLPVTPGEPASISCRSSQRLLSSYGHTYLHWYLQKPGQSPQLLIYEVSNRFSGVPDRFSGSGSGTDFTLKISRVEAEDVGVYYCSQSTHVPLTFGQGTKVEIK
**Q.** For B1, which “inhibition of PRO 140-PE binding to CEM.NKR-CCR5 cells” value (CCR5 [6]) is on record?
**A.** Complete inhibition

**Q.** What about the CI190 [1] of the same molecule?
**A.** 0.86 ± 0.33

**Q.** What about the CI190 [2] of the same molecule?
**A.** 0.90 ± 0.15

**Q.** And the “control of HIV-1 replication” value (HIV-1)?
**A.** prolonged control of HIV-1 replication without viral escape

**Q.** And the “binding of antibody 2D7 to CCR5 lymphocytes” value (CCR5 lymphocytes)?
**A.** significantly decreased

**Q.** What about the “inhibition of 3H-UK-427,857 binding” value (CCR5 [7]; in words) of the same molecule?
**A.** blocked ^3H-UK-427,857 binding to background levels

**Q.** What about the “inhibition of RANTES-induced calcium mobilization vs HIV-1JR-FL replication” value (CCR5 [9]) of the same molecule?
**A.** blocks HIV-1 but not chemokine signaling

B2: RANTES: CC-chemokine that serves as a natural ligand for CCR5; purchased from R&D Systems (protein, UniProt P13501 24-91, looked up)
C-C motif chemokine 5: SPYSSDTTPCCFAYIARPLPRAHIKEYFYTSGKCSNPAVVFVTRKNRQVCANPEKKWVREYINSLEMS
**Q.** For B2, which “Mean CF” value [5] is on record?
**A.** 0.59 ± 0.08

**Q.** And the “Mean Dose Reduction (Cpd in combination)” value ([5]; molar ratio 1:5)?
**A.** 1.75 ± 0.28

**Q.** And the “Mean Dose Reduction (Cpd in combination)” value ([5]; molar ratio 5:1)?
**A.** 5.39 ± 1.13

**Q.** And the C190 [3, 10]?
**A.** 0.43 ± 0.05

**Q.** What about the C190 [3, 11] of the same molecule?
**A.** 0.18 ± 0.01

From US20170049884A1, “USE OF ANTI-CCR5 ANTIBODIES IN GRAFT VERSUS HOST DISEASE” (CytoDyn Inc., priority 2014, published 2017)
